Data reported in ChEMBL document CHEMBL3046287, “Azoxystrobin resistance of French Mycosphaerella graminicola strains assessed by four in vitro bioassays and by screening of G143A substitution” (Crop Prot, 2010).
In brackets after ≈: the same amount, converted by molar mass.

Assays:
Format in all cases: functional, organism-based
Zymoseptoria tritici [1] = assay: Antifungal activity against azoxystrobin-sensitive Zymoseptoria tritici T0466 carrying cytochrome-b G143 allele assessed as fungal growth inhibition after 6 days at 20 degC by microplate without alamar blue assay; details: T0466, 144 h
Zymoseptoria tritici [2] = assay: Antifungal activity against azoxystrobin-resistant Zymoseptoria tritici T0254 carrying cytochrome-b A143 allele assessed as inhibition of spore germination after 2 days at 18 degC by spotting on PDA medium assay; details: T0254, 48 h
Zymoseptoria tritici [3] = assay: Antifungal activity against azoxystrobin-sensitive Zymoseptoria tritici IPO323 carrying cytochrome-b G143 allele assessed as inhibition of spore germination after 2 days at 18 degC by spotting on PDA medium assay; details: IPO323, 48 h
Zymoseptoria tritici [4] = assay: Antifungal activity against azoxystrobin-sensitive Zymoseptoria tritici T0148 carrying cytochrome-b G143 allele assessed as fungal growth inhibition after 6 days at 20 degC by microplate without alamar blue assay; details: T0148, 144 h
Zymoseptoria tritici [5] = assay: Antifungal activity against azoxystrobin-sensitive Zymoseptoria tritici T0210 carrying cytochrome-b G143 allele assessed as inhibition of spore germination after 2 days at 18 degC by spotting on PDA medium assay; details: T0210, 48 h
Zymoseptoria tritici [6] = assay: Antifungal activity against azoxystrobin-resistant Zymoseptoria tritici T0345 carrying cytochrome-b A143 allele assessed as inhibition of spore germination after 2 days at 18 degC by spotting on PDA medium assay; details: T0345, 48 h
Zymoseptoria tritici [7] = assay: Antifungal activity against azoxystrobin-sensitive Zymoseptoria tritici T0403 carrying cytochrome-b G143 allele assessed as fungal colony perpendicular diameter changes after 10 days at 18 degC by spotting on PDA medium assay; details: T0403, 240 h
Zymoseptoria tritici [8] = assay: Antifungal activity against azoxystrobin-sensitive Zymoseptoria tritici T083 carrying cytochrome-b G143 allele assessed as fungal colony perpendicular diameter changes after 10 days at 18 degC by spotting on PDA medium assay; details: T083, 240 h
Zymoseptoria tritici [9] = assay: Antifungal activity against azoxystrobin-resistant Zymoseptoria tritici T032 carrying cytochrome-b A143 allele assessed as inhibition of spore germination after 2 days at 18 degC by spotting on PDA medium assay; details: T032, 48 h
Zymoseptoria tritici [10] = assay: Antifungal activity against azoxystrobin-resistant Zymoseptoria tritici T0242 carrying cytochrome-b A143 allele assessed as fungal growth inhibition after 6 days at 20 degC by microplate without alamar blue assay; details: T0242, 144 h
Zymoseptoria tritici [11] = assay: Antifungal activity against azoxystrobin-sensitive Zymoseptoria tritici T0213 carrying cytochrome-b G143 allele assessed as inhibition of spore germination after 2 days at 18 degC by spotting on PDA medium assay; details: T0213, 48 h
Zymoseptoria tritici [12] = assay: Antifungal activity against azoxystrobin-sensitive Zymoseptoria tritici T0468 carrying cytochrome-b G143 allele assessed as fungal colony perpendicular diameter changes after 10 days at 18 degC by spotting on PDA medium assay; details: T0468, 240 h
Zymoseptoria tritici [13] = assay: Antifungal activity against azoxystrobin-resistant Zymoseptoria tritici T0262 carrying cytochrome-b A143 allele assessed as fungal growth inhibition after 6 days at 20 degC by microplate without alamar blue assay; details: T0262, 144 h
Zymoseptoria tritici [14] = assay: Antifungal activity against azoxystrobin-sensitive Zymoseptoria tritici T0213 carrying cytochrome-b G143 allele assessed as fungal colony perpendicular diameter changes after 10 days at 18 degC by spotting on PDA medium assay; details: T0213, 240 h
Zymoseptoria tritici [15] = assay: Antifungal activity against azoxystrobin-sensitive Zymoseptoria tritici T0470 carrying cytochrome-b G143 allele assessed as inhibition of spore germination after 2 days at 18 degC by spotting on PDA medium assay; details: T0470, 48 h
Zymoseptoria tritici [16] = assay: Antifungal activity against azoxystrobin-sensitive Zymoseptoria tritici T0365 carrying cytochrome-b G143 allele assessed as inhibition of spore germination after 2 days at 18 degC by spotting on PDA medium assay; details: T0365, 48 h
Zymoseptoria tritici [17] = assay: Antifungal activity against azoxystrobin-sensitive Zymoseptoria tritici T0278 carrying cytochrome-b G143 allele assessed as inhibition of spore germination after 2 days at 18 degC by spotting on PDA medium assay; details: T0278, 48 h
Zymoseptoria tritici [18] = assay: Antifungal activity against azoxystrobin-resistant Zymoseptoria tritici T055 carrying cytochrome-b A143 allele assessed as fungal growth inhibition after 6 days at 20 degC by microplate without alamar blue assay; details: T055, 144 h
Zymoseptoria tritici [19] = assay: Antifungal activity against azoxystrobin-sensitive Zymoseptoria tritici T0470 carrying cytochrome-b G143 allele assessed as fungal growth inhibition after 6 days at 20 degC by microplate without alamar blue assay; details: T0470, 144 h
Zymoseptoria tritici [20] = assay: Antifungal activity against azoxystrobin-resistant Zymoseptoria tritici T0262 carrying cytochrome-b A143 allele assessed as fungal colony perpendicular diameter changes after 10 days at 18 degC by spotting on PDA medium assay; details: T0262, 240 h
Zymoseptoria tritici [21] = assay: Antifungal activity against azoxystrobin-sensitive Zymoseptoria tritici T0471 carrying cytochrome-b G143 allele assessed as inhibition of spore germination after 2 days at 18 degC by spotting on PDA medium assay; details: T0471, 48 h
Zymoseptoria tritici [22] = assay: Antifungal activity against azoxystrobin-resistant Zymoseptoria tritici T032 carrying cytochrome-b A143 allele assessed as fungal growth inhibition after 6 days at 20 degC by microplate without alamar blue assay; details: T032, 144 h
Zymoseptoria tritici [23] = assay: Antifungal activity against azoxystrobin-resistant Zymoseptoria tritici T032 carrying cytochrome-b A143 allele assessed as fungal colony perpendicular diameter changes after 10 days at 18 degC by spotting on PDA medium assay; details: T032, 240 h
Zymoseptoria tritici [24] = assay: Antifungal activity against azoxystrobin-sensitive Zymoseptoria tritici T0384 carrying cytochrome-b G143 allele assessed as fungal growth inhibition after 6 days at 20 degC by microplate without alamar blue assay; details: T0384, 144 h
Zymoseptoria tritici [25] = assay: Antifungal activity against azoxystrobin-sensitive Zymoseptoria tritici T0211 carrying cytochrome-b G143 allele assessed as fungal colony perpendicular diameter changes after 10 days at 18 degC by spotting on PDA medium assay; details: T0211, 240 h
Zymoseptoria tritici [26] = assay: Antifungal activity against azoxystrobin-resistant Zymoseptoria tritici T0254 carrying cytochrome-b A143 allele assessed as fungal colony perpendicular diameter changes after 10 days at 18 degC by spotting on PDA medium assay; details: T0254, 240 h
Zymoseptoria tritici [27] = assay: Antifungal activity against azoxystrobin-sensitive Zymoseptoria tritici T0365 carrying cytochrome-b G143 allele assessed as fungal colony perpendicular diameter changes after 10 days at 18 degC by spotting on PDA medium assay; details: T0365, 240 h
Zymoseptoria tritici [28] = assay: Antifungal activity against azoxystrobin-resistant Zymoseptoria tritici T0251 carrying cytochrome-b A143 allele assessed as fungal colony perpendicular diameter changes after 10 days at 18 degC by spotting on PDA medium assay; details: T0251, 240 h
Zymoseptoria tritici [29] = assay: Antifungal activity against azoxystrobin-sensitive Zymoseptoria tritici T0214 carrying cytochrome-b G143 allele assessed as inhibition of spore germination after 2 days at 18 degC by spotting on PDA medium assay; details: T0214, 48 h
Zymoseptoria tritici [30] = assay: Antifungal activity against azoxystrobin-resistant Zymoseptoria tritici T0251 carrying cytochrome-b A143 allele assessed as inhibition of spore germination after 2 days at 18 degC by spotting on PDA medium assay; details: T0251, 48 h

CO/C=C(/C(=O)OC)c1ccccc1Oc1cc(Oc2ccccc2C#N)ncn1 [AZOXYSTROBIN]
IC50 (Zymoseptoria tritici [1]): < 0.01 µg/mL | IC50 (Zymoseptoria tritici [2]): 7.17 µg/mL (≈ 17.8 µM) | IC50 (Zymoseptoria tritici [3]): 0.07 µg/mL (≈ 0.174 µM) | IC50 (Zymoseptoria tritici [4]): 0.21 µg/mL (≈ 0.521 µM) | IC50 (Zymoseptoria tritici [5]): 0.01 µg/mL (≈ 0.0248 µM) | IC50 (Zymoseptoria tritici [6]): 12.6 µg/mL (≈ 31.3 µM) | IC50 (Zymoseptoria tritici [7]): 0.12 µg/mL (≈ 0.297 µM) | IC50 (Zymoseptoria tritici [8]): 0.22 µg/mL (≈ 0.545 µM) | IC50 (Zymoseptoria tritici [9]): 11.6 µg/mL (≈ 28.7 µM) | IC50 (Zymoseptoria tritici [10]): > 100 µg/mL | IC50 (Zymoseptoria tritici [11]): 0.16 µg/mL (≈ 0.397 µM) | IC50 (Zymoseptoria tritici [12]): 0.23 µg/mL (≈ 0.57 µM) | IC50 (Zymoseptoria tritici [13]): 11.7 µg/mL (≈ 28.9 µM) | IC50 (Zymoseptoria tritici [14]): 0.11 µg/mL (≈ 0.273 µM) | IC50 (Zymoseptoria tritici [15]): 0.02 µg/mL (≈ 0.0496 µM) | IC50 (Zymoseptoria tritici [16]): 0.06 µg/mL (≈ 0.149 µM) | IC50 (Zymoseptoria tritici [17]): 0.94 µg/mL (≈ 2.33 µM) | IC50 (Zymoseptoria tritici [18]): > 100 µg/mL | IC50 (Zymoseptoria tritici [19]): < 0.01 µg/mL | IC50 (Zymoseptoria tritici [20]): 9.91 µg/mL (≈ 24.6 µM) | IC50 (Zymoseptoria tritici [21]): 0.08 µg/mL (≈ 0.198 µM) | IC50 (Zymoseptoria tritici [22]): > 100 µg/mL | IC50 (Zymoseptoria tritici [23]): 37.8 µg/mL (≈ 93.8 µM) | IC50 (Zymoseptoria tritici [24]): 0.06 µg/mL (≈ 0.149 µM) | IC50 (Zymoseptoria tritici [25]): 0.08 µg/mL (≈ 0.198 µM) | IC50 (Zymoseptoria tritici [26]): 10.8 µg/mL (≈ 26.8 µM) | IC50 (Zymoseptoria tritici [27]): 0.11 µg/mL (≈ 0.273 µM) | IC50 (Zymoseptoria tritici [28]): 15.3 µg/mL (≈ 38 µM) | IC50 (Zymoseptoria tritici [29]): 0.03 µg/mL (≈ 0.0744 µM) | IC50 (Zymoseptoria tritici [30]): 34.1 µg/mL (≈ 84.7 µM)
